Numbers after ± are expanded uncertainties.
Test: molar heat capacity at constant pressure
Settings: Liquid, Flow calorimetry

C1C[C@@H]2[C@H]3CC[C@H](C3)[C@@H]2C1 [exo-tetrahydrodicyclopentadiene]
Settings	molar heat capacity at constant pressure [J/K/mol]
323.34 K, 100 kPa	219.49 ± 2.2
323.34 K, 4000 kPa	218.3 ± 2.2
323.34 K, 5020 kPa	218.14 ± 2.2
323.35 K, 3070 kPa	218.8 ± 2.2
323.35 K, 6080 kPa	217.34 ± 2.2
323.37 K, 1030 kPa	219.39 ± 2.2
323.37 K, 2050 kPa	218.99 ± 2.2
333.16 K, 3990 kPa	223.29 ± 2.3
333.17 K, 5040 kPa	223.42 ± 2.3
333.17 K, 5990 kPa	223.32 ± 2.3
333.2 K, 100 kPa	224.4 ± 2.3
333.2 K, 1070 kPa	224.39 ± 2.3
333.2 K, 3000 kPa	223.84 ± 2.3
333.21 K, 2020 kPa	224.41 ± 2.3
343.01 K, 100 kPa	230.29 ± 2.3
343.03 K, 1090 kPa	230.02 ± 2.3
343.06 K, 2070 kPa	229.6 ± 2.3
343.06 K, 3060 kPa	229 ± 2.3
343.09 K, 4000 kPa	229.5 ± 2.3
343.09 K, 5030 kPa	228.72 ± 2.3
343.09 K, 6000 kPa	229.08 ± 2.3
353.59 K, 100 kPa	234.98 ± 2.4
353.59 K, 4080 kPa	234.11 ± 2.4
353.59 K, 5070 kPa	234.17 ± 2.4
353.6 K, 6090 kPa	233.83 ± 2.4
353.61 K, 1080 kPa	234.61 ± 2.4
353.61 K, 2010 kPa	234.35 ± 2.4
353.62 K, 3070 kPa	234.12 ± 2.4
363.48 K, 100 kPa	240.37 ± 2.4
363.53 K, 1070 kPa	240.28 ± 2.4
363.53 K, 2030 kPa	240.09 ± 2.4
363.53 K, 2990 kPa	239.97 ± 2.4
363.54 K, 4080 kPa	239.88 ± 2.4
363.54 K, 5000 kPa	239.76 ± 2.4
363.55 K, 6020 kPa	239.67 ± 2.4
383.58 K, 3060 kPa	248.68 ± 2.5
383.58 K, 4010 kPa	248.49 ± 2.5
383.59 K, 5070 kPa	248.39 ± 2.5
383.6 K, 100 kPa	249.31 ± 2.5
383.6 K, 1000 kPa	248.82 ± 2.5
383.6 K, 5990 kPa	248.35 ± 2.5
383.61 K, 2020 kPa	248.8 ± 2.5
403.36 K, 100 kPa	260.34 ± 2.6
403.36 K, 1020 kPa	259.74 ± 2.6
403.37 K, 2060 kPa	259.23 ± 2.6
